Reference: patent US20240325398A1, “COMBINATION THERAPIES” (Infinity Pharmaceuticals, Inc., priority 2014, published 2024)

What was measured:
[1] = test system: HH; experiment: Combination study, ATPLite 72 h, dose matrix (Synergy Score, CI50); format: cell-based; conditions: combination with Compound 1
Description: The method is described as follows.
Additive effect is CI=1.0. […] Antagonistic effect is CI>1.0.
The Synergy Score is calculated as: […]

[2] = test system: HBL-1; experiment: as above; conditions: combination with Compound 1, 72 h
[3] = test system: OCI-Ly3; experiment: as above; conditions: combination with Compound 1; OCI-Ly3; 72 h
[4] = test system: U-2932; experiment: as above; conditions: combination with Compound 1, 72 h
Description: (§1) Cells are thawed from a liquid nitrogen preserved state. Once cells have been expanded and divide at their expected doubling times, screening begins. Cells are seeded in growth media in either black 1536-well or 384-well tissue culture treated plates. Cells are then equilibrated in assay plates via centrifugation and placed in incubators attached to the Dosing Modules at 37° C. for 24 hours before treatment. […] These Tzero (To) plates are read using ultra-sensitive luminescence on Envision plate readers (Perkin Elmer). Treated assay plates are incubated with compound for 72 hours. After 72 hours, plates are developed for endpoint analysis using ATPLite. All data points are collected via automated processes, quality controlled and analyzed using Zalicus software.
where T is treated cell count and V is untreated (vehicle) cell count (at 72 hours). I ranges from 0% (when T=V) to 100% (when T=0). […] The measure of effect in the experiment can be the inhibition of cellular response relative to the untreated level (vehicle alone). […] The inhibition ranges from 0% at the untreated level to 100% when T=0. Inhibition levels are negative for agents that actually increase levels. Other effect measures, such as an activity ratio r=T/V may be more appropriate for some assays. When activity ratios (e.g, fold increase over stimulated control) are being used, the effect can be measured using an induction 1=ln(T/V). With this definition, all effect expressions are the same as for inhibition.
(§2) Growth Inhibition (GI) is used as a measure of cell viability. […] A GI reading of 100% represents complete growth inhibition—T72 compound-treated and T0 vehicle signals are matched. […] A GI reading of 200% represents complete death of all cells in the culture well. Compounds reaching an activity plateau of GI 200% are considered cytotoxic. GI is calculated by applying the following test and equation:
(§3) Combination analysis data were collected in a 6×6 dose matrix. Synergy is calculated by comparing a combination's response to those of its single compound, against the drug-with-itself dose-additive reference model. Deviations from dose additivity may be assessed visually on an isobologram or numerically with a Combination Index (CI). […] Additive effect is CI=1.0. […] Antagonistic effect is CI>1.0.
(§4) To measure combination effects in excess of Loewe additivity, a scalar measure to characterize the strength of synergistic interaction termed the Synergy Score is devised. The Synergy Score is calculated as:
(§5) The fractional inhibition for each component agent and combination point in the matrix is calculated relative to the median of all vehicle-treated control wells. The Synergy Score equation integrates the experimentally-observed activity volume at each point in the matrix in excess of a model surface numerically derived from the activity of the component agents using the Loewe model for additivity. Additional terms in the Synergy Score equation (above) are used to normalize for various dilution factors used for individual agents and to allow for comparison of synergy scores across an entire experiment. The inclusion of positive inhibition gating or an Idata multiplier removes noise near the zero effect level, and biases results for synergistic interactions at that occur at high activity levels.
(§6) Loewe Volume (Loewe Vol) is used to assess the overall magnitude of the combination interaction in excess of the Loewe additivity model. Loewe Volume is particularly useful when distinguishing synergistic increases in a phenotypic activity (positive Loewe Volume) versus synergistic antagonisms (negative Loewe Volume). […] This model defines additivity as a non-synergistic combination interaction where the combination dose matrix surface should be indistinguishable from either drug crossed with itself. The calculation for Loewe additivity is:

[5] = test system: TMD8; experiment: as above; conditions: combination with Compound 1; TMD8; 72 h
[6] = test system: OCI-Ly7; experiment: as above; conditions: combination with Compound 1, 72 h
[7] = test system: SU-DHL-4-epst; experiment: as above; conditions: combination with Compound 1, 72 h
Description: as §1
The measure of effect in the experiment can be the inhibition of cellular response relative to the untreated level (vehicle alone). […] The inhibition ranges from 0% at the untreated level to 100% when T=0. Inhibition levels are negative for agents that actually increase levels.
as §2, §3, §4, §5, §6

[8] = test system: DOHH-2; experiment: as above; conditions: combination with Compound 1, 72 h
[9] = test system: Farage; experiment: as above; conditions: combination with Compound 1; Farage; 72 h
[10] = test system: SU-DHL-10-epst; experiment: as above; conditions: combination with Compound 1, 72 h
[11] = test system: RL; experiment: as above; conditions: combination with Compound 1, 72 h
[12] = test system: KARPAS-422; experiment: as above; conditions: combination with Compound 1, 72 h
[13] = test system: WSU-NHL; experiment: as above; conditions: combination with Compound 1, 72 h
[14] = test system: KARPAS-299; experiment: as above; conditions: combination with Compound 1
[15] = test system: GRANTA-519; experiment: as above; conditions: combination with Compound 1
[16] = test system: Jeko-1; experiment: as above; conditions: combination with Compound 1
[17] = test system: Mino; experiment: as above; conditions: combination with Compound 1
[18] = test system: NCI-H929; experiment: as above; conditions: combination with Compound 1
[19] = as above; conditions: combination with Compound 1; OPM-2
[20] = test system: OMP-2; experiment: as above; conditions: combination with Compound 1; OPM-2
[21] = test system: RPMI-8226; experiment: as above; conditions: combination with Compound 1

O=C(NOC[C@H](O)CO)c1ccc(F)c(F)c1Nc1ccc(I)cc1F [PD0325901]
CI50 growth inhibition [1]: W (W=≥1)
CI50 inhibition [1]: U (U=0.7 to <1)
Synergy Score growth inhibition [1]: A2 (A2=1 to <3)
Synergy Score inhibition [1]: A1 (A1=0.0001 to <1)
CI50 growth inhibition [2]: T (T=0.5 to <0.7)
Synergy Score growth inhibition [2]: A2 (A2=1 to <3)
Synergy Score inhibition [2]: A1 (A1=0.0001 to <1)
CI50 growth inhibition [3]: S (S=0.01 to <0.5)
Synergy Score growth inhibition [3]: A2 (A2=1 to <3)
Synergy Score inhibition [3]: A1 (A1=0.0001 to <1)
CI50 growth inhibition [4]: U (U=0.7 to <1)
Synergy Score growth inhibition [4]: A2 (A2=1 to <3)
Synergy Score inhibition [4]: A1 (A1=0.0001 to <1)
CI50 growth inhibition [5]: U (U=0.7 to <1)
CI50 inhibition [5]: U (U=0.7 to <1)
Synergy Score growth inhibition [5]: A3 (A3=>3)
Synergy Score inhibition [5]: A3 (A3=>3)
Synergy Score growth inhibition [6]: A1 (A1=0.0001 to <1)
Synergy Score inhibition [6]: A1 (A1=0.0001 to <1)
CI50 growth inhibition [7]: S (S=0.01 to <0.5)
CI50 inhibition [7]: T (T=0.5 to <0.7)
Synergy Score growth inhibition [7]: A2 (A2=1 to <3)
Synergy Score inhibition [7]: A2 (A2=1 to <3)
CI50 growth inhibition [8]: W (W=≥1)
CI50 inhibition [8]: W (W=≥1)
Synergy Score growth inhibition [8]: A1 (A1=0.0001 to <1)
Synergy Score inhibition [8]: A1 (A1=0.0001 to <1)
CI50 growth inhibition [9]: W (W=≥1)
CI50 inhibition [9]: W (W=≥1)
Synergy Score growth inhibition [9]: A2 (A2=1 to <3)
Synergy Score inhibition [9]: A1 (A1=0.0001 to <1)
CI50 growth inhibition [10]: S (S=0.01 to <0.5)
CI50 inhibition [10]: S (S=0.01 to <0.5)
Synergy Score growth inhibition [10]: A3 (A3=>3)
Synergy Score inhibition [10]: A2 (A2=1 to <3)
Synergy Score growth inhibition [11]: A1 (A1=0.0001 to <1)
Synergy Score inhibition [11]: A1 (A1=0.0001 to <1)
CI50 growth inhibition [12]: S (S=0.01 to <0.5)
CI50 inhibition [12]: T (T=0.5 to <0.7)
Synergy Score growth inhibition [12]: A2 (A2=1 to <3)
Synergy Score inhibition [12]: A2 (A2=1 to <3)
CI50 growth inhibition [13]: S (S=0.01 to <0.5)
CI50 inhibition [13]: S (S=0.01 to <0.5)
Synergy Score growth inhibition [13]: A3 (A3=>3)
Synergy Score inhibition [13]: A3 (A3=>3)
CI50 growth inhibition [14]: S (S=0.01 to <0.5)
Synergy Score growth inhibition [14]: A2 (A2=1 to <3)
Synergy Score inhibition [14]: A1 (A1=0.0001 to <1)
CI50 growth inhibition [15]: S (S=0.01 to <0.5)
Synergy Score growth inhibition [15]: A3 (A3=>3)
Synergy Score inhibition [15]: A2 (A2=1 to <3)
CI50 growth inhibition [16]: U (U=0.7 to <1)
Synergy Score growth inhibition [16]: A1 (A1=0.0001 to <1)
Synergy Score inhibition [16]: A1 (A1=0.0001 to <1)
CI50 growth inhibition [17]: S (S=0.01 to <0.5)
CI50 inhibition [17]: S (S=0.01 to <0.5)
Synergy Score growth inhibition [17]: A3 (A3=>3)
Synergy Score inhibition [17]: A3 (A3=>3)
CI50 growth inhibition [18]: S (S=0.01 to <0.5)
CI50 inhibition [18]: U (U=0.7 to <1)
Synergy Score growth inhibition [18]: A3 (A3=>3)
Synergy Score inhibition [18]: A2 (A2=1 to <3)
CI50 growth inhibition [19]: U (U=0.7 to <1)
CI50 inhibition [20]: W (W=≥1)
Synergy Score growth inhibition [20]: A3 (A3=>3)
Synergy Score inhibition [20]: A2 (A2=1 to <3)
CI50 growth inhibition [21]: U (U=0.7 to <1)
Synergy Score growth inhibition [21]: A2 (A2=1 to <3)
Synergy Score inhibition [21]: A2 (A2=1 to <3)

CN1CCc2c(c3ccccc3n2Cc2ccc(C(=O)NO)cc2)C1.Cl [Tubastatin A hydrochloride]
CI50 growth inhibition [1]: S (S=0.01 to <0.5)
CI50 inhibition [1]: T (T=0.5 to <0.7)
Synergy Score growth inhibition [1]: A3 (A3=>3)
Synergy Score inhibition [1]: A2 (A2=1 to <3)
CI50 growth inhibition [2]: U (U=0.7 to <1)
CI50 inhibition [2]: W (W=≥1)
Synergy Score growth inhibition [2]: A2 (A2=1 to <3)
Synergy Score inhibition [2]: A1 (A1=0.0001 to <1)
CI50 growth inhibition [3]: U (U=0.7 to <1)
CI50 inhibition [3]: W (W=≥1)
Synergy Score growth inhibition [3]: A2 (A2=1 to <3)
Synergy Score inhibition [3]: A1 (A1=0.0001 to <1)
CI50 growth inhibition [4]: U (U=0.7 to <1)
Synergy Score growth inhibition [4]: A1 (A1=0.0001 to <1)
Synergy Score inhibition [4]: A1 (A1=0.0001 to <1)
CI50 growth inhibition [5]: U (U=0.7 to <1)
CI50 inhibition [5]: U (U=0.7 to <1)
Synergy Score growth inhibition [5]: A3 (A3=>3)
Synergy Score inhibition [5]: A2 (A2=1 to <3)
CI50 growth inhibition [6]: S (S=0.01 to <0.5)
CI50 inhibition [6]: U (U=0.7 to <1)
Synergy Score growth inhibition [6]: A3 (A3=>3)
Synergy Score inhibition [6]: A2 (A2=1 to <3)
CI50 growth inhibition [7]: T (T=0.5 to <0.7)
CI50 inhibition [7]: S (S=0.01 to <0.5)
Synergy Score growth inhibition [7]: A3 (A3=>3)
Synergy Score inhibition [7]: A2 (A2=1 to <3)
CI50 growth inhibition [8]: T (T=0.5 to <0.7)
CI50 inhibition [8]: T (T=0.5 to <0.7)
Synergy Score growth inhibition [8]: A3 (A3=>3)
Synergy Score inhibition [8]: A2 (A2=1 to <3)
CI50 growth inhibition [9]: S (S=0.01 to <0.5)
CI50 inhibition [9]: T (T=0.5 to <0.7)
Synergy Score growth inhibition [9]: A3 (A3=>3)
Synergy Score inhibition [9]: A2 (A2=1 to <3)
CI50 growth inhibition [10]: T (T=0.5 to <0.7)
CI50 inhibition [10]: T (T=0.5 to <0.7)
Synergy Score growth inhibition [10]: A3 (A3=>3)
Synergy Score inhibition [10]: A2 (A2=1 to <3)
CI50 growth inhibition [11]: W (W=≥1)
CI50 inhibition [11]: W (W=≥1)
Synergy Score growth inhibition [11]: A2 (A2=1 to <3)
Synergy Score inhibition [11]: A2 (A2=1 to <3)
Synergy Score growth inhibition [12]: A1 (A1=0.0001 to <1)
Synergy Score inhibition [12]: A1 (A1=0.0001 to <1)
CI50 growth inhibition [13]: T (T=0.5 to <0.7)
CI50 inhibition [13]: T (T=0.5 to <0.7)
Synergy Score growth inhibition [13]: A3 (A3=>3)
Synergy Score inhibition [13]: A2 (A2=1 to <3)
Synergy Score growth inhibition [14]: A1 (A1=0.0001 to <1)
Synergy Score inhibition [14]: A1 (A1=0.0001 to <1)
CI50 growth inhibition [15]: S (S=0.01 to <0.5)
CI50 inhibition [15]: W (W=≥1)
Synergy Score growth inhibition [15]: A2 (A2=1 to <3)
Synergy Score inhibition [15]: A1 (A1=0.0001 to <1)
CI50 growth inhibition [16]: W (W=≥1)
CI50 inhibition [16]: W (W=≥1)
Synergy Score growth inhibition [16]: A1 (A1=0.0001 to <1)
Synergy Score inhibition [16]: A1 (A1=0.0001 to <1)
CI50 growth inhibition [17]: U (U=0.7 to <1)
CI50 inhibition [17]: U (U=0.7 to <1)
Synergy Score growth inhibition [17]: A2 (A2=1 to <3)
Synergy Score inhibition [17]: A1 (A1=0.0001 to <1)
CI50 growth inhibition [18]: U (U=0.7 to <1)
CI50 inhibition [18]: T (T=0.5 to <0.7)
Synergy Score growth inhibition [18]: A3 (A3=>3)
Synergy Score inhibition [18]: A2 (A2=1 to <3)
CI50 growth inhibition [19]: W (W=≥1)
Synergy Score growth inhibition [20]: A1 (A1=0.0001 to <1)
Synergy Score inhibition [20]: A1 (A1=0.0001 to <1)
CI50 growth inhibition [21]: U (U=0.7 to <1)
CI50 inhibition [21]: U (U=0.7 to <1)
Synergy Score growth inhibition [21]: A2 (A2=1 to <3)
Synergy Score inhibition [21]: A1 (A1=0.0001 to <1)
